Data published in PubChem BioAssay (NCI).
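Following 48 hours of exposure in 96-well plates, responses at five concentrations were used to interpolate endpoints linearly. Definition used: TGI = concentration required for complete inhibition of growth.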

Tests used:
Assay in all cases: DTP human tumour cell line panel, 48 h
[1] = tested on: MDA-MB-435
[2] = tested on: HOP-92 NSCLC
[3] = tested on: HOP-62 NSCLC
[4] = tested on: SN12C renal
[5] = tested on: EKVX NSCLC
[6] = tested on: SNB-19 CNS
[7] = tested on: CCRF-CEM leukemia
[8] = tested on: NCI/ADR-RES ovarian
[9] = tested on: NCI-H522 lung
[10] = tested on: PC-3 prostate
[11] = tested on: ACHN renal
[12] = tested on: SNB-75 CNS
[13] = tested on: NCI-H23 lung
[14] = tested on: SK-MEL-2 melanoma
[15] = tested on: SF-295 CNS
[16] = tested on: SK-OV-3 ovarian
[17] = tested on: BT-549 breast
[18] = tested on: CAKI-1 renal
[19] = tested on: TK-10 renal
[20] = tested on: OVCAR-5 ovarian
[21] = tested on: OVCAR-3 ovarian
[22] = tested on: A549 NSCLC
[23] = tested on: UACC-62 melanoma
[24] = tested on: SF-268 CNS
[25] = tested on: MCF7 breast
[26] = tested on: UACC-257 melanoma
[27] = tested on: SR leukemia
[28] = tested on: K-562 leukemia
[29] = tested on: HCC-2998 colon
[30] = tested on: NCI-H460 lung
[31] = tested on: T-47D breast
[32] = tested on: KM12 colon
[33] = tested on: 786-0 renal
[34] = tested on: SK-MEL-5 melanoma
[35] = tested on: UO-31 renal
[36] = tested on: SF-539 CNS
[37] = tested on: OVCAR-4 ovarian
[38] = tested on: MOLT-4 leukemia
[39] = tested on: HCT-116 colon
[40] = tested on: SW-620 colon
[41] = tested on: HT29 colon
[42] = tested on: U251 CNS
[43] = tested on: NCI-H226 lung
[44] = tested on: RPMI-8226 leukemia
[45] = tested on: COLO 205 colon
[46] = tested on: MDA-MB-231 breast
[47] = tested on: HS 578T breast
[48] = tested on: SK-MEL-28 melanoma
[49] = tested on: HL-60(TB) leukemia
[50] = tested on: DU-145 prostate
[51] = tested on: LOX IMVI melanoma
[52] = tested on: RXF 393 renal
[53] = tested on: HCT-15 colon
[54] = tested on: A498 renal
[55] = tested on: MDA-N
[56] = tested on: IGROV1 ovarian
[57] = tested on: M14 melanoma
[58] = tested on: MALME-3M melanoma
[59] = tested on: OVCAR-8 ovarian
[60] = tested on: DMS 114 small cell lung
[61] = tested on: KM20L2 colon
[62] = tested on: SNB-78 CNS
[63] = tested on: LXFL 529 NSCLC
[64] = tested on: DMS 273 small cell lung
[65] = tested on: M19-MEL melanoma

SMILES: CC(Cl)(CCC(Cl)C(C)(C)Cl)C(=O)CBr (stereo unspecified)
- TGI [1]: 30.6 µM
- TGI [2]: 20.8 µM
- TGI [3]: 32.5 µM
- TGI [4]: 28.7 µM
- TGI [5]: 30.9 µM
- TGI [6]: > 85.5 µM
- TGI [7]: > 21.5 µM
- TGI [8]: 74.2 µM
- TGI [9]: 3.94 µM
- TGI [10]: 28.2 µM
- TGI [11]: 20.9 µM
- TGI [12]: 26.5 µM
- TGI [13]: 39.5 µM
- TGI [14]: 30.3 µM
- TGI [15]: 55.4 µM
- TGI [16]: 26.9 µM
- TGI [17]: 27.3 µM
- TGI [18]: 27.8 µM
- TGI [19]: 24.1 µM
- TGI [20]: 31.6 µM
- TGI [21]: 29.5 µM
- TGI [22]: 43 µM
- TGI [23]: 22.7 µM
- TGI [24]: 31.7 µM
- TGI [25]: 28.5 µM
- TGI [26]: 25.5 µM
- TGI [27]: 6.54 µM
- TGI [28]: > 100 µM
- TGI [29]: 30.9 µM
- TGI [30]: 32.3 µM
- TGI [31]: 50.7 µM
- TGI [32]: 29.6 µM
- TGI [33]: 20.7 µM
- TGI [34]: 21 µM
- TGI [35]: 22 µM
- TGI [36]: 29.8 µM
- TGI [37]: 7.46 µM
- TGI [38]: 3.81 µM
- TGI [39]: 18.2 µM
- TGI [40]: 4.96 µM
- TGI [41]: 32.3 µM
- TGI [42]: 29.8 µM
- TGI [43]: 33.7 µM
- TGI [44]: 7.99 µM
- TGI [45]: 18.4 µM
- TGI [46]: 23.9 µM
- TGI [47]: 58.1 µM
- TGI [48]: 31.6 µM
- TGI [49]: > 100 µM
- TGI [50]: 33.7 µM
- TGI [51]: 5.76 µM
- TGI [52]: 11.2 µM
- TGI [53]: 21.7 µM
- TGI [54]: 31.1 µM
- TGI [55]: 21.3 µM
- TGI [56]: 26.7 µM
- TGI [57]: 21.8 µM
- TGI [58]: 24.8 µM
- TGI [59]: 23.7 µM

SMILES: NCCOCCOCC(=O)O
- TGI [2]: > 100 µM
- TGI [4]: > 100 µM
- TGI [5]: > 100 µM
- TGI [60]: > 100 µM
- TGI [6]: > 100 µM
- TGI [9]: > 100 µM
- TGI [61]: > 100 µM
- TGI [11]: > 100 µM
- TGI [12]: > 100 µM
- TGI [13]: > 100 µM
- TGI [14]: > 100 µM
- TGI [15]: > 100 µM
- TGI [16]: > 100 µM
- TGI [18]: > 100 µM
- TGI [19]: > 100 µM
- TGI [20]: > 100 µM
- TGI [21]: > 100 µM
- TGI [22]: > 100 µM
- TGI [23]: > 100 µM
- TGI [24]: > 100 µM
- TGI [26]: > 100 µM
- TGI [27]: > 100 µM
- TGI [62]: > 100 µM
- TGI [28]: > 100 µM
- TGI [29]: > 100 µM
- TGI [32]: > 100 µM
- TGI [33]: > 100 µM
- TGI [34]: > 100 µM
- TGI [35]: > 100 µM
- TGI [36]: > 100 µM
- TGI [37]: > 100 µM
- TGI [38]: > 100 µM
- TGI [39]: > 100 µM
- TGI [63]: > 100 µM
- TGI [40]: > 100 µM
- TGI [41]: > 100 µM
- TGI [42]: > 100 µM
- TGI [43]: > 100 µM
- TGI [44]: > 100 µM
- TGI [48]: > 100 µM
- TGI [64]: > 100 µM
- TGI [52]: > 100 µM
- TGI [65]: > 100 µM
- TGI [53]: > 100 µM
- TGI [56]: > 100 µM
- TGI [58]: > 100 µM
- TGI [59]: > 100 µM
